Measurements as given in ChEMBL document CHEMBL1135283, “Carbonic anhydrase activators: human isozyme II is strongly activated by oligopeptides incorporating the carboxyterminal sequence of the bicarbonate anion exchanger AE1” (Bioorg Med Chem Lett, 2002).
Where a SMILES comes first, the peptide text is derived from it. The star is where a group is joined. Boc = CC(C)(C)OC(=O)*

Experiments:
[1] = biological target: Carbonic anhydrase 2 (Homo sapiens) (UniProt P00918); test: Tested in vitro for activation of Human cloned isozyme carbonic anhydrase II (hCA II)
[2] = biological target: Carbonic anhydrase 1 (Homo sapiens) (UniProt P00915); test: Tested in vitro for activation of Human cloned isozyme carbonic anhydrase I (hCA I)
[3] = biological target: T1, Carbonic anhydrase 4 (Bos taurus) (UniProt Q95323); test: Tested in vitro for activation of carbonic anhydrase IV (bCA IV), purified from bovine lung microsomes; conditions: Microsome
T1 sequence (whole entry): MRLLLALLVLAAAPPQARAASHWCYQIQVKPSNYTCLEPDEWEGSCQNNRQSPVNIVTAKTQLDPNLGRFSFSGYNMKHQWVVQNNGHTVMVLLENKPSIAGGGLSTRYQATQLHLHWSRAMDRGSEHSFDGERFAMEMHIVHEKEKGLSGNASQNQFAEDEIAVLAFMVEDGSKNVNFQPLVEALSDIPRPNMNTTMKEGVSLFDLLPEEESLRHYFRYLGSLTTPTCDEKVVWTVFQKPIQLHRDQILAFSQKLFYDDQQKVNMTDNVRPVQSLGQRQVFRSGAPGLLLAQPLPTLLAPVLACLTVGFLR

Chain of Carbonic anhydrase 1 (Homo sapiens) (P00915 2-261 limits assumed): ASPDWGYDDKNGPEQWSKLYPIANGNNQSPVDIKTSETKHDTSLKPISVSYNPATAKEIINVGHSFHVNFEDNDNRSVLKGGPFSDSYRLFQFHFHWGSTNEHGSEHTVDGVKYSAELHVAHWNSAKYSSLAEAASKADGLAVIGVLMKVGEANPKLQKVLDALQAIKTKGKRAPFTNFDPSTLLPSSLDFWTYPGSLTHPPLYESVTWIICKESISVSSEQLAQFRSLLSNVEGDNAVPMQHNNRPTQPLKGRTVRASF

| Structure (SMILES) | KA [1] [µM] | KA [2] [µM] | KA [3] [µM] |
| --- | --- | --- | --- |
| CC(C)(C)OC(=O)N[C@@H](CC(=O)O)C(=O)O | > 200 | > 200 | > 200 |
| C[C@H](N)C(=O)O | 150 | 54 | 66 |
| N[C@@H](CC(=O)O)C(=O)O | 130 | 48 | 60 |
| CC(=O)N[C@@H](CC(=O)O)C(=O)N[C@@H](CC(=O)O)C(=O)O (Ac-Asp-Asp-OH) | > 200 | > 200 | > 200 |
| CC(C)(C)OC(=O)N[C@@H](CC(=O)O)C(=O)N[C@@H](CC(=O)O)C(=O)N[C@@H](CC(=O)O)C(=O)O (Boc-Asp-Asp-Asp-OH) | 145 | > 200 | > 200 |
| CC(C)(C)OC(=O)N[C@@H](CC(=O)O)C(=O)N[C@@H](CC(=O)O)C(=O)O (Boc-Asp-Asp-OH) | > 200 | > 200 | > 200 |
| C[C@H](NC(=O)[C@H](CC(=O)O)NC(=O)OC(C)(C)C)C(=O)N[C@@H](CC(=O)O)C(=O)N[C@@H](CC(=O)O)C(=O)O (Boc-DADD-OH) | 131 | > 200 | > 200 |
| CC(C)(C)OC(=O)N[C@@H](CC(=O)O)C(=O)N[C@@H](CC(=O)O)C(=O)N[C@@H](CC(=O)O)C(=O)N[C@@H](CC(=O)O)C(=O)O (Boc-DDDD-OH) | 124 | > 200 | > 200 |
| N[C@@H](CC(=O)O)C(=O)N[C@@H](CC(=O)O)C(=O)N[C@@H](CC(=O)O)C(=O)O (H-Asp-Asp-Asp-OH) | 11 | 40 | 45 |
| C[C@H](NC(=O)[C@@H](N)CC(=O)O)C(=O)N[C@@H](CC(=O)O)C(=O)N[C@@H](CC(=O)O)C(=O)O (H-DADD-OH) | 0.2 | 36 | 46 |
| N[C@@H](CC(=O)O)C(=O)N[C@@H](CC(=O)O)C(=O)N[C@@H](CC(=O)O)C(=O)N[C@@H](CC(=O)O)C(=O)O (H-DDDD-OH) | 0.1 | 35 | 43 |

The next lines start with the values.

| KA [1] [µM] | KA [2] [µM] | KA [3] [µM] | Structure (SMILES) |
| --- | --- | --- | --- |
| > 200 | > 200 | > 200 | CC(=O)N[C@@H](CC(=O)O)C(=O)N[C@@H](C)C(=O)O (Ac-Asp-Ala-OH) |
| 110 | 50 | 62 | C[C@H](N)C(=O)N[C@@H](C)C(=O)O (H-Ala-Ala-OH) |
| 10 | 38 | 48 | C[C@H](NC(=O)[C@@H](N)CC(=O)O)C(=O)N[C@@H](CC(=O)O)C(=O)O (H-Asp-Ala-Asp-OH) |
| 33 | 40 | 55 | C[C@H](NC(=O)[C@@H](N)CC(=O)O)C(=O)O (H-Asp-Ala-OH) |
| 21 | 39 | 51 | N[C@@H](CC(=O)O)C(=O)N[C@@H](CC(=O)O)C(=O)O (H-Asp-Asp-OH) |
